Our source for the inhibition values is US9895340B2, “Fluorinated benzofuran derivatives” (SciFluor Life Sciences, Inc., priority 2012, dated 2018).

Type in all cases: cell-based
Series [1] addresses T1, hKir3.1/hKir3.4 potassium channels (Homo sapiens, UniProt P48544+P48549).
T1 construct: expressed in transfected cells; host or cells: HEK293 cells
T1 sequence (P48549 1-501): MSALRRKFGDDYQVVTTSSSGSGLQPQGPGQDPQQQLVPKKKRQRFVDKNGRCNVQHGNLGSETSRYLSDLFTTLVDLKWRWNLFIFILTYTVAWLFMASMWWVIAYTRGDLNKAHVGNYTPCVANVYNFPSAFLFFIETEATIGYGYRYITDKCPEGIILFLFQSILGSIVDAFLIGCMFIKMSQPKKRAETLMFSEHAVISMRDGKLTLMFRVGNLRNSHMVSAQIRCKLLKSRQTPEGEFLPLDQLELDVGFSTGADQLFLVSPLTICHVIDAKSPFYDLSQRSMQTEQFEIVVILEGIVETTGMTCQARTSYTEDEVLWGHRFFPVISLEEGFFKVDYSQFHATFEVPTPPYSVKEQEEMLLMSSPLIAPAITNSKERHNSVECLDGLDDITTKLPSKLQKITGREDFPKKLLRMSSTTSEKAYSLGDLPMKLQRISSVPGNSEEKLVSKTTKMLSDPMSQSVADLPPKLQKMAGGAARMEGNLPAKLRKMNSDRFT
T1 sequence (P48544 1-419): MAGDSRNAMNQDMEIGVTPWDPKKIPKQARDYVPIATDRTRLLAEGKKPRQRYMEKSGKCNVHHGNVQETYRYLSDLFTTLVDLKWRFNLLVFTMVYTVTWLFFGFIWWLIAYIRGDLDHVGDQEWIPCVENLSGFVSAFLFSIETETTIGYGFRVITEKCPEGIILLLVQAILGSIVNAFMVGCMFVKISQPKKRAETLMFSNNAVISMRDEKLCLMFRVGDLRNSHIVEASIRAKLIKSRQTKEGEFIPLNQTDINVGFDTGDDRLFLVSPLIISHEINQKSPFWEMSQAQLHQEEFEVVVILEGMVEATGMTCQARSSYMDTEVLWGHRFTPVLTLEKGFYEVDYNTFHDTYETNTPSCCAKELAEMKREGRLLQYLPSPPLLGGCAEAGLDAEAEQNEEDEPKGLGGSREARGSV
Nature of the series: hKir3.1/hKir3.4 potassium channel automated patch clamp. The note with it: HEK293 cells; for inhibition at 1 µM: read-out: K(ach) @ 1 μM ion channel inhibition; for inhibition at 10 µM: read-out: K(ach) ion channel inhibition. The method, then: (§1) Compounds of the present invention were tested for their anti-arrhythmic activity in a series of in vitro cardiac ion channel assays using cloned human channels expressed in CHO cells or HEK293 cells: • 1. Cloned L-type calcium channels (hCav1.2, encoded by the human CACNA1C gene and coexpressed with the (32 subunit, encoded by the human CACNB2 gene and the α2δ1 subunit encoded by the human CACNA2D1 gene, in CHO cells), responsible for Ica,L, high threshold calcium current. • 2. Cloned hERG potassium channels (encoded by the KCNH2 gene and expressed in human embryonic kidney, HEK293, cells) responsible for IKr. • 3. Cloned hKir2.1 potassium channels (encoded by the human KCNJ2 gene and expressed in HEK293 cells), responsible for IKI, inwardly rectifying potassium current. • 4. Cloned hKvLQT1/hminK potassium channels (encoded by the human KCNQ1 and KCNE1 genes and coexpressed in CHO cells), responsible for IKs, slow delayed rectifier potassium current. • 5. Cloned hKv1.5 potassium channels (encoded by the human KCNA5 gene and expressed in CHO cells), responsible for IKur, ultra-rapid delayed rectifier potassium current. • 6. Cloned hNav1.5 sodium channels (SCN5A gene, expressed in CHO cells). • 7. Cloned hKir3.1/hKir3.4 potassium channels (expressed by the human KCNJ3 and KCNJ5 genes and co-expressed in HEK293 cells) responsible for IACh, inwardly rectifying potassium current.
(§2) One concentration of a compound of the present invention was applied for a […] interval via disposable polyethylene micropipette tips to naïve cells (n≧2, where n=the number cells/concentration). Each solution exchange, performed in quadruplicate, consisted of aspiration and replacement of 45 μL volume of the extracellular well of the Sealchip16. Duration of exposure to the test compound was three minutes. For the hKir3.1/hKir3.4 assay, two concentrations of a compound of the present invention were used and the duration of exposure was 3 minutes.
(§3) In preparation for an automated patch clamp procedure recording session, intracellular solution was loaded into the intracellular compartments of the Sealchip16 or Qplate planar electrode. Cell suspension was pipetted into the extracellular compartments of the Sealchip16 or Qplate planar electrode. After establishment of a whole-cell configuration, membrane currents were recorded using dual-channel patch clamp amplifiers in the PatchXpress® or Qpatch HT® system. Before digitization, the current records were low-pass filtered at one-fifth of the sampling frequency.
(§4) Valid whole-call recordings met the following criteria: • 1. Membrane resistance (Rm)≧200 MΩ • 2. Leak current≦25% channel current. hCav1.2 Test Procedure
The in vitro effects of the compounds of the present invention were evaluated at room temperature using the PatchXpress (Model 7000A, Molecular Devices, Union City, Calif.), an automated parallel patch clamp system.
On the technique in general: Patch clamp records ionic current or voltage across a cell membrane.

The target in series [2] is T2, hKir2.1 potassium channels (Homo sapiens, UniProt P63252).
T2 construct: expressed in transfected cells; host or cells: HEK293 cells
T2 sequence (P63252 1-427): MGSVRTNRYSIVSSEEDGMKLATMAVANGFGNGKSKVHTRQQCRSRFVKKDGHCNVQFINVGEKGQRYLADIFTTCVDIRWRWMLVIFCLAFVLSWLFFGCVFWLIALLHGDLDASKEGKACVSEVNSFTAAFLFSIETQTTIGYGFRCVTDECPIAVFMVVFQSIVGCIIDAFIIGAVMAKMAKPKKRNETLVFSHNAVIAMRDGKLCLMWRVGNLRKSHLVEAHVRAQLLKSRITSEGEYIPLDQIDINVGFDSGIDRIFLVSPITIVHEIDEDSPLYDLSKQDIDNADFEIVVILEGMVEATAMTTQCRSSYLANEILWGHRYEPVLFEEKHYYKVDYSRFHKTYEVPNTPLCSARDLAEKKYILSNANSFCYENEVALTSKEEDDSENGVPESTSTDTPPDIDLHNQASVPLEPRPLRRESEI
Nature of the series: hKir2.1 potassium channel automated patch clamp. The conditions noted are these: HEK293 cells, read-out: Kir2.1 ion channel inhibition. The method, then: as §1, §2
In preparation for an automated patch clamp procedure recording session, intracellular solution was loaded into the intracellular compartments of the Sealchip16 or Qplate planar electrode. Cell suspension was pipetted into the extracellular compartments of the Sealchip16 or Qplate planar electrode. After establishment of a whole-cell configuration, membrane currents were recorded using dual-channel patch clamp amplifiers in the PatchXpress® or Qpatch HT® system. […]
Onset and steady state block of hKir2.1 current was measured using a pulse pattern with fixed amplitudes (hyperpolarization: −110 mV amplitude, 300 ms duration) repeated at 10 s intervals from a holding potential of −70 mV. Current amplitude was measured at the end of the step to −110 mV.

In series [3] the target is T3, hKvLQT1/hminK potassium channels (Homo sapiens, UniProt P51787).
T3 construct: expressed in transfected cells; host or cells: CHO cells
Nature of the series: hKvLQT1/hminK potassium channel automated patch clamp. The conditions noted are these: CHO cells, read-out: KvLQT ion channel inhibition. On the procedure: as §1, §2
In preparation for an automated patch clamp procedure recording session, intracellular solution was loaded into the intracellular compartments of the Sealchip16 or Qplate planar electrode. […] After establishment of a whole-cell configuration, membrane currents were recorded using dual-channel patch clamp amplifiers in the PatchXpress® or Qpatch HT® system. […]
Onset and steady state block of hKvLQT1/hminK current was measured using a pulse pattern with fixed amplitudes (depolarization: +40 mV for 2 s; repolarization: −40 mV for 0.5 s) repeated at 15 s intervals from a holding potential of −80 mV. Current amplitude was measured at the end of the step to +40 mV. […] Leakage current was measured after chromanol 293B addition and subtracted from the total membrane current record.

In a further series the target is T4, hCav1.2/β2/α2δ channels (Homo sapiens, UniProt Q13936).
T4 construct: expressed in transfected cells; host or cells: CHO cells
Nature of the series: hCav1.2 L-type calcium channel automated patch clamp. The conditions noted are these: CHO cells, read-out: Cav1.2 ion channel inhibition. The method, then: as §1, §2
(§5) In preparation for an automated patch clamp procedure recording session, intracellular solution was loaded into the intracellular compartments of the Sealchip16 or Qplate planar electrode. Cell suspension was pipetted into the extracellular compartments of the Sealchip16 or Qplate planar electrode. After establishment of a whole-cell configuration, membrane currents were recorded using dual-channel patch clamp amplifiers in the PatchXpress® or Qpatch HT® system. Before digitization, the current records were low-pass filtered at one-fifth of the sampling frequency. […]
Onset and steady state block of hCav1.2/β2/α2δ channels were measured using a stimulus voltage pattern consisting of a depolarizing test pulse (duration, 200 ms; amplitude, 10 mV) at 10 s intervals from a −80 mV holding potential. Peak current was measured during the step to 10 mV. […]

Series [4] concerns the target T5, hKv1.5 potassium channels (Homo sapiens, UniProt P22460).
T5 construct: expressed in transfected cells; host or cells: CHO cells
Nature of the series: hKv1.5 potassium channel automated patch clamp. The note with it: CHO cells, read-out: Kv1.5 ion channel inhibition. On the procedure:
as §1, §2, §5
Onset and steady state block of hKv1.5 current was measured using a pulse pattern with fixed amplitudes (depolarization: +20 mV amplitude, 300 ms duration) repeated at 10 s intervals from a holding potential of −80 mV. Current amplitude was measured at the end of the step to +20 mV.

In the next series the target is T6, hNav1.5 sodium channels (Homo sapiens, UniProt Q14524).
T6 construct: expressed in transfected cells; host or cells: CHO cells
Nature of the series: hNav1.5 sodium channel automated patch clamp. The conditions noted are these: CHO cells. The method, then: as §1, §2, §3, §4
Onset and steady-state block of hNav1.5 current was measured using double pulse pattern consisting of a series of two depolarizing test pulses to −15 mV. From a holding potential of −80 mV, an initial hyperpolarizing conditioning pre-pulse (−120 mV amplitude, 200 ms duration,) was followed immediately by the first depolarizing test pulse to −15 mV (200 ms duration). This was followed by a hyperpolarizing conditioning inter-pulse to −80 mV (200 ms duration) and then a second depolarizing test pulse to −15 mV for 20 ms. The pulse pattern was repeated at 10 s intervals and peak current amplitudes at both test pulses were measured.

Series [5] deals with T7, hERG potassium channel (KCNH2, IKr) (Homo sapiens, UniProt Q12809).
T7 construct: expressed in transfected cells; host or cells: HEK293 cells
Nature of the series: hERG potassium channel automated patch clamp. The conditions noted are these: HEK293 cells expressing cloned hERG potassium channels, read-out: hERG ion channel inhibition. In general terms: Block of hERG is tested as a sign of cardiac risk.
Protocol: One concentration of a compound of the present invention was applied for a five-minute interval via disposable polyethylene micropipette tips to naïve cells (n≧2, where n=the number cells/concentration). Each solution exchange, performed in quadruplicate, consisted of aspiration and replacement of 45 μL volume of the extracellular well of the Sealchip16. Duration of exposure to the test compound was three minutes.
Onset and block of hERG current was measured using a stimulus voltage pattern consisting of a 500 ms prepulse to −40 mV (leakage subtraction), a 2-second activating pulse to +40 mV, followed by a 2-second test pulse to −40 mV. Leakage current was calculated from the current amplitude evoked by the prepulse and subtracted from the total membrane current record.

Setting [6] is: phasic block, read-out: Nav1.5 phasic ion channel inhibition.
The mark [7] stands for this setting: tonic block, read-out: Nav1.5 tonic ion channel inhibition.

Where two headings read alike, the source gives them in different places.

T6 sequence (Q14524 whole entry): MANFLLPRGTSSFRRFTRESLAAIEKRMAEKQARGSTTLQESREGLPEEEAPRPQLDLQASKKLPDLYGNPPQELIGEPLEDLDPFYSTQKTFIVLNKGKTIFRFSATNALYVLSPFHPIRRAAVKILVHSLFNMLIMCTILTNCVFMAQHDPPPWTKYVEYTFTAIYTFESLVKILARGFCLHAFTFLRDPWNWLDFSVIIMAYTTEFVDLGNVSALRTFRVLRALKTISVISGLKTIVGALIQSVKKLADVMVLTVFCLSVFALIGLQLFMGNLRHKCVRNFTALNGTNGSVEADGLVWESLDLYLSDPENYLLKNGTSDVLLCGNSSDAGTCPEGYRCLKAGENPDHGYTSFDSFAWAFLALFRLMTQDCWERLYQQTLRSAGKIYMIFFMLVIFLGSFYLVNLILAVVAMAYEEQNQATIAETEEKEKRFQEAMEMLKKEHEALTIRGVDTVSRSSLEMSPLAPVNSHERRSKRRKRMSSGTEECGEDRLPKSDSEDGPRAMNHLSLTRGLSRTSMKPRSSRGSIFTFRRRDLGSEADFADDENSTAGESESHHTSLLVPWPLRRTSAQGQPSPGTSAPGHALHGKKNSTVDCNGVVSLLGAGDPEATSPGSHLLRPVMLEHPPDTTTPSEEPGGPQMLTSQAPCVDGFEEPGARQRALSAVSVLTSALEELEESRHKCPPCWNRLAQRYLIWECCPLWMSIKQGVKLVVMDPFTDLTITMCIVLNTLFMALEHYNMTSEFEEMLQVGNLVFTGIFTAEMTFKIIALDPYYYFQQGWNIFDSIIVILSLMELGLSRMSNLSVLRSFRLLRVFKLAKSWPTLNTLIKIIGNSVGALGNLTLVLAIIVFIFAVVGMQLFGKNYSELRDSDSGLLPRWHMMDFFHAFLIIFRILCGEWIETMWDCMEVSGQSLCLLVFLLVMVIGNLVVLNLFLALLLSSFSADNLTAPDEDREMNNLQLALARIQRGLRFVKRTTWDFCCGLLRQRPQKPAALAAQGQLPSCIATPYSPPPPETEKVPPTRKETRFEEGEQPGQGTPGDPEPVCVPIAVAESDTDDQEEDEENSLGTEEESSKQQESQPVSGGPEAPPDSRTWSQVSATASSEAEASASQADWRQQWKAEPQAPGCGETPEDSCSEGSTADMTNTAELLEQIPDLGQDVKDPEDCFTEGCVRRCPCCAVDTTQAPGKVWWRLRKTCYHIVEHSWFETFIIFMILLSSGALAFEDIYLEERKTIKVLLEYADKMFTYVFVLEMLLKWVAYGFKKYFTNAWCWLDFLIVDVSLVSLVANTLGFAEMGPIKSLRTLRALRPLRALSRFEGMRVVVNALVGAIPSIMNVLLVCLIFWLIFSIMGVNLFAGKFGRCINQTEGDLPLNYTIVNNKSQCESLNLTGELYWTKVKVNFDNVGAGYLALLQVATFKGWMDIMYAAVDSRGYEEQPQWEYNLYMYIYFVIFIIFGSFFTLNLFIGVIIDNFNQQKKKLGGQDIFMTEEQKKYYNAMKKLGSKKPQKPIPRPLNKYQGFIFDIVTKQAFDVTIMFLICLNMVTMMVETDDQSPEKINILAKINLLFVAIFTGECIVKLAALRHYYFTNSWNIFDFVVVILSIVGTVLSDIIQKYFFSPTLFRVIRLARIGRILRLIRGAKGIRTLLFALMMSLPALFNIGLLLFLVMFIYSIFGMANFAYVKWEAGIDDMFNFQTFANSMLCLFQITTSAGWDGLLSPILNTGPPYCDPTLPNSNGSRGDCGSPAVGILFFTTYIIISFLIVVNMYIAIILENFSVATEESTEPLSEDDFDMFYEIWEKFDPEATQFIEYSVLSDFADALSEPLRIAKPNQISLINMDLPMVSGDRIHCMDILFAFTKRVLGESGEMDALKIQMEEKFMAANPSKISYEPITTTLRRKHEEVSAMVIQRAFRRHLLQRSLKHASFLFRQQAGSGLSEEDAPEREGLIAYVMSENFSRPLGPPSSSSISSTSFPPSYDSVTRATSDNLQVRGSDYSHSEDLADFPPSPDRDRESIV
T7 sequence (Q12809 whole entry): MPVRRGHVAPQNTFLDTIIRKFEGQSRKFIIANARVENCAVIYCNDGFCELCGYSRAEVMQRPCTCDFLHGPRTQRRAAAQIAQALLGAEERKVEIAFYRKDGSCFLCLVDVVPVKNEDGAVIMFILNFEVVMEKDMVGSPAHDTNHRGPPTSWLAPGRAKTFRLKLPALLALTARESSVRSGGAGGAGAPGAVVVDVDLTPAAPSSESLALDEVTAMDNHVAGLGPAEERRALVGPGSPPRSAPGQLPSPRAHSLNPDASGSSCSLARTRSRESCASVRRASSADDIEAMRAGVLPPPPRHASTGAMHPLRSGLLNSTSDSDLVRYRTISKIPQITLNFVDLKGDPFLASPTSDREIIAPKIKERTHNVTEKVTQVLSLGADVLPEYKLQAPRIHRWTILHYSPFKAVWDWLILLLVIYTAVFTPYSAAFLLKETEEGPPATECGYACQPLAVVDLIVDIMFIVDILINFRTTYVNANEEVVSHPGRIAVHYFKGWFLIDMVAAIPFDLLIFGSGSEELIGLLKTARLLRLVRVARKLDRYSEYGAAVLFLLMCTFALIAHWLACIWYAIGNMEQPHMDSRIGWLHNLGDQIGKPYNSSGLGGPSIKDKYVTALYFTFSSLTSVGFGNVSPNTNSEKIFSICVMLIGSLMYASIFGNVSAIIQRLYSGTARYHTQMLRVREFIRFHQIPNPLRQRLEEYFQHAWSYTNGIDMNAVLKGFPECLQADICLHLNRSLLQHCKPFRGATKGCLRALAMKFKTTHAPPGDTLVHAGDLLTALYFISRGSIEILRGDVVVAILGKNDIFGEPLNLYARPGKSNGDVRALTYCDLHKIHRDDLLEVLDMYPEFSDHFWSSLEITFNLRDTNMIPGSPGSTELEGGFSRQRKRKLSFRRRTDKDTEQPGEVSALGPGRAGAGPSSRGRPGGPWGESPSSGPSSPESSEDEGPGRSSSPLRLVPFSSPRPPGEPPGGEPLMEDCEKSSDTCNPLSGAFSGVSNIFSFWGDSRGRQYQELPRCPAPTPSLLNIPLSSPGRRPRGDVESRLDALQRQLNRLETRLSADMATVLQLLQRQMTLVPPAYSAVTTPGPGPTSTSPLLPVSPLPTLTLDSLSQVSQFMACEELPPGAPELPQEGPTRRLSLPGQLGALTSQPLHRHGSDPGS
T5 sequence (P22460 whole entry): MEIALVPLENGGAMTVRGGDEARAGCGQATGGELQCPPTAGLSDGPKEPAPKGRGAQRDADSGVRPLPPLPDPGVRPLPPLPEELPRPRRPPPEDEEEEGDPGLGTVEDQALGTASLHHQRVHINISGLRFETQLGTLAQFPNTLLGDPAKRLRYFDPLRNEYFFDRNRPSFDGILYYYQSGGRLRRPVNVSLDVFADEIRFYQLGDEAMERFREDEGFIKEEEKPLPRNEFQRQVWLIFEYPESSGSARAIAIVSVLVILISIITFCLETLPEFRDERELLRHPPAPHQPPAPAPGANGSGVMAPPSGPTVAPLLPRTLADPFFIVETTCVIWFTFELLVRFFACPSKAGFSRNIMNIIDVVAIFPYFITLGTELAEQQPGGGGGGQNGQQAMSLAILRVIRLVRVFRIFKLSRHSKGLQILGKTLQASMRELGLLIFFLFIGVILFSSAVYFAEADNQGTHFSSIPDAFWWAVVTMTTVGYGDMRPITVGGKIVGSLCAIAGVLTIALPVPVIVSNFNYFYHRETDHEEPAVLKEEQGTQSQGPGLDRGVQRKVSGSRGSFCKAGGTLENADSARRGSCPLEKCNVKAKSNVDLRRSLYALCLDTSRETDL

For orientation: inhibition means the change of the read-out against control, counted positive when it falls. Turning to `CCCCc1oc2ccccc2c1C(=O)c1cc(I)c(OCCN(CC)CC)c(I)c1` [Amiodarone, 2-n-butyl 3-[4-(2-diethylaminoethoxy) 3,5-diiodobenzoyl] benzofuran, reference compound], the inhibition at 1 µM in series [1] is 4.5%. Moreover, the inhibition at 10 µM in series [1] is 23%; in series [2], 0.9%; in series [3] it was -0.6%; on hCav1.2/β2/α2δ channels it was 7.7%; in series [4], 0.7%; on hNav1.5 sodium channels (setting [6]), 44%. Also, the inhibition at 10 µM at hNav1.5 sodium channels (setting [7]) is 6.8%.

For `CCCCc1oc2ccccc2c1C(=O)c1cc(C(F)(F)F)c(OCCN(CC)CC)c(C(F)(F)F)c1` [Compound 1, (2-butylbenzofuran-3-yl)(4-(2-(diethylamino)ethoxy)-3,5-bis(trifluoromethyl)phenyl)methanone], the inhibition at 1 µM in series [1] was determined as 16%. The inhibition at 10 µM turned out to be 49% in series [1]; 0.3% in series [2]; 49% in series [3]; 101% at hCav1.2/β2/α2δ channels; 54% in series [4]; 26% at hNav1.5 sodium channels (setting [6]). The inhibition at 10 µM on hNav1.5 sodium channels (setting [7]) was 11.5%. Besides, the inhibition at 3 min, 10 µM in series [5] worked out at 55%.

As to `CCCCc1oc2ccccc2c1C(=O)c1cc(I)c(OCCN(CC)CC)c(C(F)(F)F)c1` [Compound 2, (2-butylbenzofuran-3-yl)(4-(2-(diethylamino)ethoxy)-3-iodo-5-(trifluoromethyl)phenyl) methanone], in series [1], the inhibition at 1 µM came to 1.4%. Besides, the inhibition at 10 µM in series [1] turned out to be 4.6%; in series [2] it was 2.7%; in series [3], 2.5%; at hCav1.2/β2/α2δ channels, 81%; in series [4], 21%; on hNav1.5 sodium channels (setting [6]), 44%. Also, the inhibition at 10 µM at hNav1.5 sodium channels (setting [7]) is 23%. In series [5], the inhibition at 3 min, 10 µM turned out to be 75%.

Consider `CCCCc1oc2ccccc2c1C(=O)c1ccc(OCCN(CC)CC)c(C(F)(F)F)c1` [Compound 3, (2-butylbenzofuran-3-yl)(4-(2-(diethylamino)ethoxy)-3-(trifluoromethyl)phenyl)methanone], for which, in series [1], the inhibition at 1 µM came out at 2.1%. Also, the inhibition at 10 µM in series [1] is 11%; in series [2], 9.7%; in series [3] it was 8.4%; at hCav1.2/β2/α2δ channels it was 2%; in series [4] it was 25%; at hNav1.5 sodium channels (setting [6]), 86%. Moreover, on hNav1.5 sodium channels (setting [7]), the inhibition at 10 µM stood at 48%. Besides, the inhibition at 3 min, 10 µM in series [5] was found to be 74%.
